In publication PMC3926237, “Identification of Levothyroxine Antichagasic Activity through Computer-Aided Drug Repurposing” (The Scientific World Journal, 2014):

Biological target: cruzipain (Cz) (Trypanosoma cruzi, UniProt P25779)
Test: chromogenic Bz-Pro-Phe-Arg-pNA protease assay on partially purified native cruzipain, […] nm
Format: biochemical

Chain of cruzipain (Cz) (P25779 123-467): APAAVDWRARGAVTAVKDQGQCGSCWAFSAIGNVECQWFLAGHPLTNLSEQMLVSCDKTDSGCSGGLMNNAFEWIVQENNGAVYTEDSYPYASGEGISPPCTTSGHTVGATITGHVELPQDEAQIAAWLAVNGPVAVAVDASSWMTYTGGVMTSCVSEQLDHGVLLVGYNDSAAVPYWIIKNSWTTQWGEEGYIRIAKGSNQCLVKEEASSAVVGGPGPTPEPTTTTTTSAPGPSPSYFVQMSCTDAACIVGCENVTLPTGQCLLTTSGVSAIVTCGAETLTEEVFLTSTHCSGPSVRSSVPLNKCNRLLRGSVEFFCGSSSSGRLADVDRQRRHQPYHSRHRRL

Q: How did the IC50 turn out when N[C@@H](Cc1cc(I)c(Oc2cc(I)c(O)c(I)c2)c(I)c1)C(=O)O [levothyroxine] was run?
A: 38.4 ± 6.82 µM
